Columns and labels:
PGI2 = PGI2 (Homo sapiens, UniProt P43119); conditions: background statement, see WO 2002/088084; cited from earlier work
[1] = Measurement of particle size distribution of the crystals (HORIBA LA-910) and observation with electron scanning microscope; assay type: physicochemical; conditions: for D10: Cumulative undersize particle diameter at 10% of volumetric ratio / D50: Cumulative undersize particle diameter at 50% of volumetric ratio / D90: Cumulative undersize particle diameter at 90% of volumetric ratio: crystals dispersed with ultrasonic wave in saturated solution of compound A in 0.1 v/v % Polysorbate 80 aqueous solution
Procedure: After a dispersant (10 mL) was added to the crystals of the invention (20 mg) followed by shaking up, the crystals of the invention were dispersed with ultrasonic wave. The particle size distributions of the crystals of the invention were measured by using HORIBA LA-910. The dispersant used is a filtered saturated solution of compound A in 0.1 v/v % Polysorbate 80 aqueous solution. D10: Cumulative undersize particle diameter at 10% of volumetric ratio [μm] D50: Cumulative undersize particle diameter at 50% of volumetric ratio [μm] D90: Cumulative undersize particle diameter at 90% of volumetric ratio [μm] (2) Observation of the Crystals of the Invention with Electron Scanning Microscope The crystals were observed through an electron scanning microscope (HITACHI HIGH TECHNOLOGIES TM-1000 Miniscope).

Sequence of PGI2 (P43119 whole entry): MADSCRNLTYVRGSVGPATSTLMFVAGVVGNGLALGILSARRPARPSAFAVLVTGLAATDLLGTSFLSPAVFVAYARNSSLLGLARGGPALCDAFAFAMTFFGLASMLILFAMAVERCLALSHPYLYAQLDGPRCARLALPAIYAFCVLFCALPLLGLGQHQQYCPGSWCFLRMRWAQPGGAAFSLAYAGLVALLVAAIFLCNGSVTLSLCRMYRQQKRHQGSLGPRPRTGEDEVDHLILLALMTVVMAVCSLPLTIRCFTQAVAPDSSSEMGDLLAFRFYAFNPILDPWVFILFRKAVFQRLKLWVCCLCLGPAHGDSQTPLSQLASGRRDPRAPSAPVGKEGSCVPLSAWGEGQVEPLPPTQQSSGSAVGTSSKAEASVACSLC

In the case of `CC(C)N(CCCCOCC(=O)NS(C)(=O)=O)c1cnc(-c2ccccc2)c(-c2ccccc2)n1` [Compound A, 2-{4-[N-(5,6-diphenylpyrazin-2-yl)-N-isopropylamino]butyloxy}-N-(methylsulfonyl)acetamide], the PGI2 agonistic effect (PGI2) is listed as “excellent PGI2 agonistic effect”.
With `CC(C)N(CCCCOCC(=O)NS(C)(=O)=O)c1cnc(-c2ccccc2)c(-c2ccccc2)n1` [Form-I Crystal of the Invention, 2-{4-[N-(5,6-diphenylpyrazin-2-yl)-N-isopropylamino]butyloxy}-N-(methylsulfonyl)acetamide] the “particle size compared between crystal forms” value ([1]; conclusion from particle size distribution and electron scanning micrographs) was “larger than those of Form-II and Form-III crystals”, the “D10: Cumulative undersize particle diameter at 10% of volumetric ratio” value [1] was 5.6 μm and the “D50: Cumulative undersize particle diameter at 50% of volumetric ratio” value [1] was 12.8 μm. For the same molecule, the “D90: Cumulative undersize particle diameter at 90% of volumetric ratio” value [1] was 25.8 μm.
In the case of `CC(C)N(CCCCOCC(=O)NS(C)(=O)=O)c1cnc(-c2ccccc2)c(-c2ccccc2)n1` [Form-II Crystal of the Invention, 2-{4-[N-(5,6-diphenylpyrazin-2-yl)-N-isopropylamino]butyloxy}-N-(methylsulfonyl)acetamide], the “D10: Cumulative undersize particle diameter at 10% of volumetric ratio” value [1] is reported as 5.2 μm, the “D50: Cumulative undersize particle diameter at 50% of volumetric ratio” value [1] is reported as 11.3 μm and the “D90: Cumulative undersize particle diameter at 90% of volumetric ratio” value [1] is reported as 22.0 μm.
For `CC(C)N(CCCCOCC(=O)NS(C)(=O)=O)c1cnc(-c2ccccc2)c(-c2ccccc2)n1` [Form-III Crystal of the Invention, 2-{4-[N-(5,6-diphenylpyrazin-2-yl)-N-isopropylamino]butyloxy}-N-(methylsulfonyl)acetamide], the “D10: Cumulative undersize particle diameter at 10% of volumetric ratio” value [1] was 4.3 μm, the “D50: Cumulative undersize particle diameter at 50% of volumetric ratio” value [1] was 8.0 μm and the “D90: Cumulative undersize particle diameter at 90% of volumetric ratio” value [1] was 14.4 μm.

Reference: patent US9284280B2, “Use of form-I crystal of 2-{4-[N-(5,6-diphenylpyrazin-2-yl)-N-isopropylamino]butyloxy}-N-(methylsulfonyl)acetamide” (NIPPON SHINYAKU CO., LTD., priority 2009, dated 2016)
